Experimental data reported in patent US4650791A, “Certain 3-alkoxy-2-cyclic-imido-propyl-phosphate-ethyl-cyclic ammonium hydroxide inner salts which inhibit activities of platelet activating factor” (Takedo Chemical Industries, Ltd., priority 1984, dated 1987).

What was measured:
[1] = tested on: PAF-induced platelet aggregation (washed PRP); assay: Activity to inhibit PAF in platelet aggregation (washed PRP); assay type: cell-based; details: Oryctolagus cuniculus, male rabbit, compound 3×10^-5 M, PAF 3×10^-5 M, 37° C., read-out: inhibition rate relative to the maximum transmission (maximum aggregation) of control PRP by PAF
Method: Activity to inhibit PAF in platelet aggregation
Using an injection syringe containing a 3.15% solution of citric acid (in a ratio of 1 part per 9 parts of blood) as an anticoagulant, the blood was directly collected from a male rabbit. Then, at room temperature, the blood was centrifuged at 1,000 r.p.m. for 10 minutes to harvest a platelet rich plasm (PRP). This PRP was further centrifuged at 1,400 r.p.m. for 15 minutes to give platelet pellets. The pellets were suspended in Ca^++ -free Tyrode solution (containing 0.25% of gelatin) to give a washed PRP. This washed PRP (250 μl) was stirred at 37° C. for 2 minutes, then 25 μl of a 0.2 to 0.5 mM Ca^++ solution was added, and the mixture was further stirred for 30 seconds. Then, the compound obtained in Example 5 was added to a concentration of 3×10^-5 M. After stirring the mixture for 2 minutes, 3×10^-5 M of PAF was added. The degree of platelet aggregation was determined with a platelet aggregometer (Rika Denki). The activity of the test drug was estimated from the inhibition rate relative to the maximum transmission (maximum aggregation) of control PRP by PAF. The inhibition rate thus found was 70%.

[2] = tested on: PAF-induced platelet aggregation (PRP); assay: Activity on inhibiting platelet aggregation (PRP, PAF-induced); assay type: cell-based; details: male rabbit, PAF 1×10^-8 M, 37° C.
Method: Activity on inhibiting platelet aggregation
Using an injection syringe containing 3.15% citric acid (in a ratio of 1 part per 9 parts of blood) as an anticoagulant, the blood was directly collected from a male rabbit. Then, at room temperature, the blood was centrifuged at 800 r.p.m. for 10 minutes to harvest a platelet rich plasma (PRP). The remaining blood was further centrifuged at 3,000 r.p.m. for 10 minutes to separate a platelet poor plasma (PPP) as a supernatant. The PRP was diluted with the PPP to adjust the number of platelets to about 0.5 million (5×10^5) per μl. This PRP (250 μl) was stirred at 37° C. for 2 minutes, and the test compound was added to the PRP. After stirring the mixture for 2 minutes, 1×10^-8 M of PAF was added to the mixture. The degree of platelet aggregation was determined with a platelet aggregometer (Rika Denki). The aggregation inhibitory activity of the test compound was estimated from the inhibition rate relative to the maximum transmission (maximum aggregation) of control PRP by PAF.

Structure (SMILES) | inhibition at 30 µM [1] | Inhibition rate (%) ([2]; test compound 3 × 10^-5 (M)) | Inhibition rate (%) ([2]; test compound 3 × 10^-6 (M))
CCCCCCCCCCCCCCCCCCOCC(COP(=O)([O-])OCC[n+]1ccccc1)N1C(=O)c2ccccc2C1=O (centres unmarked) [Example 5, 3-Octadecyloxy-2-phthalimidopropyl 2-pyridinioethyl phosphate] | 70% | – | –
CCCCCCCCCCCCCCCCCCOCC(COP(=O)([O-])OCC[n+]1ccsc1)N1C(=O)c2ccccc2C1=O (centres unmarked) [Example 6, 3-Octadecyloxy-2-phthalimidopropyl 2-thiazolioethyl phosphate] | – | 100% | 96%
CCCCCCCCCCCCCCCCCCOCC(COP(=O)([O-])OCC[n+]1ccsc1)N1C(=O)CCC1=O (centres unmarked) [Example 12, 3-Octadecyloxy-2-succinimidopropyl 2-thiazolioethyl phosphate] | – | 100% | 32%
